Source: PubChem BioAssay AID248 (DTP/NCI, 2004)
Where “and” joins values, the source holds several entries; their conditions need not be identical. Equal values may be shown once. Toxic doses and inconclusive results are not listed. No stated cut-off is given here; in the data, active means T/C of 150% or more; inactive means T/C below 125%.

Tested on: L1210 leukemia ip in BDF1 mice, survival T/C
Assay: NCI In Vivo Anticancer Drug Screen. Data for tumor model L1210 Leukemia (intraperitoneal) in B6D2F1 (BDF1) mice
Conditions: endpoint: mean survival time, higher = longer survival
How it was run: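 Each compound was tested against a transplantable tumor grown in mice. The endpoint was survival, with treated animals benchmarked against vehicle controls as a simple ratio.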

[1] = dose: 100.0 mg/kg/injection, schedule: Q04DX003 (ip), vehicle: Klucel (hydroxypropylcellulose) (HPC)
[2] = dose: 200.0 mg/kg/injection, schedule: Q04DX003 (ip), vehicle: Klucel (hydroxypropylcellulose) (HPC)
[3] = dose: 100.0 mg/kg/injection, schedule: Q01DX001 (ip), vehicle: saline with Tween-80
[4] = dose: 100.0 mg/kg/injection, schedule: Q01DX009 (ip), vehicle: saline with Tween-80
[5] = dose: 100.0 mg/kg/injection, schedule: Q04DX002 (ip), vehicle: saline with Tween-80
[6] = dose: 100.0 mg/kg/injection, schedule: Q04DX003 (ip), vehicle: saline with Tween-80
[7] = dose: 200.0 mg/kg/injection, schedule: Q01DX001 (ip), vehicle: saline with Tween-80
[8] = dose: 200.0 mg/kg/injection, schedule: Q01DX009 (ip), vehicle: saline with Tween-80
[9] = dose: 200.0 mg/kg/injection, schedule: Q04DX003 (ip), vehicle: saline with Tween-80
[10] = dose: 400.0 mg/kg/injection, schedule: Q01DX001 (ip), vehicle: saline with Tween-80
[11] = dose: 400.0 mg/kg/injection, schedule: Q01DX009 (ip), vehicle: saline with Tween-80
[12] = dose: 400.0 mg/kg/injection, schedule: Q04DX003 (ip), vehicle: saline with Tween-80
[13] = dose: 400.0 mg/kg/injection, schedule: Q04DX003 (ip), vehicle: Klucel (hydroxypropylcellulose) (HPC)
[14] = dose: 100.0 mg/kg/injection, schedule: Q04DX003 (ip), vehicle: saline
[15] = dose: 100.0 mg/kg/injection, schedule: Q01DX001 (ip), vehicle: carboxymethylcellulose (CMC)
[16] = dose: 200.0 mg/kg/injection, schedule: Q01DX001 (ip), vehicle: saline
[17] = dose: 400.0 mg/kg/injection, schedule: Q01DX001 (ip), vehicle: saline
[18] = dose: 100.0 mg/kg/injection, schedule: Q01DX001 (ip), vehicle: saline

Measured: T/C

Cc1c([N+](=O)[O-])cc(C(C)(C)C)c(OC(=O)Nc2ccc(Cl)cc2)c1[N+](=O)[O-]
inactive: [1] 95 % of control | [2] 92 % of control

CCOc1ccc(NC(=O)Oc2ccc(C(=O)OC)cc2)cc1
inactive: [3] 93 % of control | [4] 101 % of control and 103 % of control | [5] 103 % of control and 92 % of control | [6] 105 % of control | [7] 91 % of control | [8] 100 % of control and 103 % of control | dose: 200.0 mg/kg/injection, schedule: Q04DX002 (ip), vehicle: saline with Tween-80 95 % of control and 92 % of control | [9] 103 % of control | [10] 91 % of control | [11] 93 % of control and 94 % of control | dose: 400.0 mg/kg/injection, schedule: Q04DX002 (ip), vehicle: saline with Tween-80 103 % of control | [12] 105 % of control

Cc1cc2c([N+](=O)[O-])c3cccnn3c2nn1
inactive: dose: 50.0 mg/kg/injection, schedule: Q04DX002 (ip), vehicle: Klucel (hydroxypropylcellulose) (HPC) 114 % of control | dose: 100.0 mg/kg/injection, schedule: Q04DX002 (ip), vehicle: Klucel (hydroxypropylcellulose) (HPC) 111 % of control | dose: 200.0 mg/kg/injection, schedule: Q04DX002 (ip), vehicle: Klucel (hydroxypropylcellulose) (HPC) 91 % of control

O=P(c1ccccc1)(c1ccccc1)N1CCCCC1
inactive: [1] 101 % of control | [2] 96 % of control | [13] 93 % of control

O=C(Nc1ccccn1)c1ccccc1
inactive: [5] 99 % of control

CC1(C)OCC2SC(n3cnc4c(N)ncnc43)C(OS(C)(=O)=O)C2O1 (stereo not given)
inactive: dose: 100.0 mg/kg/injection, schedule: Q01DX005 (ip), vehicle: saline 97 % of control | dose: 200.0 mg/kg/injection, schedule: Q01DX005 (ip), vehicle: saline 90 % of control

CC1CCC2(CC1)OCC(CCl)O2 (stereo not given)
inactive: dose: 222.0 mg/kg/injection, schedule: Q01DX Z (ip), vehicle: saline 107 % of control | dose: 333.0 mg/kg/injection, schedule: Q01DX Z (ip), vehicle: saline 110 % of control | dose: 500.0 mg/kg/injection, schedule: Q01DX Z (ip), vehicle: saline 113 % of control

CCC(C)Sc1ccc(C)cc1 (stereo not given)
inactive: dose: 75.0 mg/kg/injection, schedule: Q01DX009 (ip), vehicle: Klucel (hydroxypropylcellulose) (HPC) 98 % of control | dose: 150.0 mg/kg/injection, schedule: Q01DX009 (ip), vehicle: Klucel (hydroxypropylcellulose) (HPC) 102 % of control | dose: 300.0 mg/kg/injection, schedule: Q01DX009 (ip), vehicle: Klucel (hydroxypropylcellulose) (HPC) 93 % of control

COC(=O)c1nc(Cl)nc(N)c1Cl
inactive: [1] 94 % of control | [2] 94 % of control | [13] 97 % of control

CCN(CC)Cc1ccccn1
inactive: dose: 25.0 mg/kg/injection, schedule: Q04DX003 (ip), vehicle: saline 102 % of control | dose: 50.0 mg/kg/injection, schedule: Q04DX003 (ip), vehicle: saline 107 % of control | [14] 96 % of control

CC(O)(c1ccccc1)C1C(c2ccccc2)N1Cc1ccccc1 (stereo not given)
inactive: dose: 100.0 mg/kg/injection, schedule: Q04DX003 (ip), vehicle: saline sonified 96 % of control | dose: 200.0 mg/kg/injection, schedule: Q04DX003 (ip), vehicle: saline sonified 94 % of control | dose: 400.0 mg/kg/injection, schedule: Q04DX003 (ip), vehicle: saline sonified 91 % of control

CCC(C)C1(C)OC1C(=O)OC (stereo not given)
inactive: [4] 93 % of control | [6] 100 % of control | [8] 86 % of control | [9] 101 % of control | [12] 97 % of control

Cc1cc2ccccn2c1C(=O)c1ccccc1
inactive: [15] 107 % of control | dose: 100.0 mg/kg/injection, schedule: Q01DX009 (ip), vehicle: carboxymethylcellulose (CMC) 106 % of control | dose: 100.0 mg/kg/injection, schedule: Q04DX002 (ip), vehicle: carboxymethylcellulose (CMC) 98 % of control and 102 % of control | dose: 100.0 mg/kg/injection, schedule: Q04DX003 (ip), vehicle: carboxymethylcellulose (CMC) 102 % of control | dose: 200.0 mg/kg/injection, schedule: Q01DX001 (ip), vehicle: carboxymethylcellulose (CMC) 98 % of control | dose: 200.0 mg/kg/injection, schedule: Q01DX009 (ip), vehicle: carboxymethylcellulose (CMC) 96 % of control and 106 % of control | dose: 200.0 mg/kg/injection, schedule: Q04DX002 (ip), vehicle: carboxymethylcellulose (CMC) 94 % of control and 107 % of control | dose: 200.0 mg/kg/injection, schedule: Q04DX003 (ip), vehicle: carboxymethylcellulose (CMC) 102 % of control | dose: 400.0 mg/kg/injection, schedule: Q01DX001 (ip), vehicle: carboxymethylcellulose (CMC) 98 % of control | dose: 400.0 mg/kg/injection, schedule: Q01DX009 (ip), vehicle: carboxymethylcellulose (CMC) 95 % of control and 102 % of control | dose: 400.0 mg/kg/injection, schedule: Q04DX002 (ip), vehicle: carboxymethylcellulose (CMC) 93 % of control and 102 % of control | dose: 400.0 mg/kg/injection, schedule: Q04DX003 (ip), vehicle: carboxymethylcellulose (CMC) 102 % of control

Cc1cc(C)c(C)c(OCC(=O)O)c1
inactive: dose: 75.0 mg/kg/injection, schedule: Q01DX001 (ip), vehicle: other 97 % of control | dose: 150.0 mg/kg/injection, schedule: Q01DX001 (ip), vehicle: other 97 % of control | dose: 300.0 mg/kg/injection, schedule: Q01DX001 (ip), vehicle: other 95 % of control

Cc1cc(=O)n(/C=C/C(=O)O)c2ccccc12
inactive: [1] 97 % of control | [2] 112 % of control | [13] 94 % of control

CN(C)CCCNCC(=O)N1CCN(C(=O)CNCCCN(C)C)CC1
inactive: dose: 50.0 mg/kg/injection, schedule: Q01DX001 (ip), vehicle: carboxymethylcellulose (CMC) 106 % of control | [15] 106 % of control

CC1([N+](=O)[O-])COP(=O)(O)OC1 (stereo not given)
inactive: [16] 90 % of control | [17] 97 % of control

O=C1NC2CCCCCCC12 (stereo not given)
inactive: dose: 100.0 mg/kg/injection, schedule: Q04DX002 (ip), vehicle: saline + alcohol 119 % of control | dose: 200.0 mg/kg/injection, schedule: Q04DX002 (ip), vehicle: saline + alcohol 105 % of control | dose: 400.0 mg/kg/injection, schedule: Q04DX002 (ip), vehicle: saline + alcohol 105 % of control

CC1CCN(C(=S)[S-])CC1.CC1CCN(C(=S)[S-])CC1.[Zn]
inactive: dose: 12.5 mg/kg/injection, schedule: Q01DX009 (ip), vehicle: saline 111 % of control | dose: 25.0 mg/kg/injection, schedule: Q01DX009 (ip), vehicle: saline 107 % of control | dose: 50.0 mg/kg/injection, schedule: Q01DX009 (ip), vehicle: saline 100 % of control | [14] 103 % of control

CC(=O)N(C)c1ccc(NC(=S)NC(=O)c2cccc([N+](=O)[O-])c2)cc1
inactive: dose: 25.0 mg/kg/injection, schedule: Q01DX009 (ip), vehicle: saline with Tween-80 97 % of control and 109 % of control | dose: 50.0 mg/kg/injection, schedule: Q01DX009 (ip), vehicle: saline with Tween-80 98 % of control and 108 % of control | [3] 97 % of control | dose: 100.0 mg/kg/injection, schedule: Q04DX002 (ip), vehicle: saline 93 % of control and 101 % of control | [7] 92 % of control | dose: 200.0 mg/kg/injection, schedule: Q04DX002 (ip), vehicle: saline 96 % of control and 97 % of control | [10] 92 % of control | [11] 93 % of control and 105 % of control | dose: 400.0 mg/kg/injection, schedule: Q04DX002 (ip), vehicle: saline 101 % of control and 104 % of control

CC(=O)c1c(OC(C)C(=O)O)ccc2ccccc12 (stereo not given)
inactive: [18] 98 % of control | [16] 101 % of control | [17] 107 % of control

CCOc1ccc(C=C(C#N)C#N)cc1OCC
inactive: [18] 105 % of control | [16] 102 % of control | [17] 90 % of control

C=COCCC(C(=O)OCC)C(=O)OCC
inactive: dose: 100.0 mg/kg/injection, schedule: Q01DX009 (ip), vehicle: saline 100 % of control | dose: 200.0 mg/kg/injection, schedule: Q01DX009 (ip), vehicle: saline 96 % of control | dose: 400.0 mg/kg/injection, schedule: Q01DX009 (ip), vehicle: saline 100 % of control
